In patent publication US5081232A, “Complexes of TC99m radiopharmaceuticals” (priority 1987, dated 1992):
Where two headings read alike, the source gives them in different places.

Legend:
[1] = rat, in vivo, iv
Protocol: (§1) 0.1 ml Tc^99m prep was injected i.v. into a lateral tail vein of 6 anaesthetised rats.
(§2) At 2 minutes and 60 minutes post injection, 3 rats were sacrificed by decapitation, bled from the neck and dissected. The following organs were removed at dissection: kidney, bladder(+urine), lung, liver, spleen, stomach, small intestine, large intestine, brain (weighed), heart (weighed), thyroid, and samples of blood (weighed) and muscle (weighed, the residual carcass and the tail (injection site). Subsequently samples were counted in an automatic twin crystal gamma counter.
(§3) Percentage biodistribution of injected material was calculated (after correction for background) for all organs using the formula: [formula]
(§4) Since only samples of muscle and blood were taken, the percentage in these tissues was calculated assuming blood and muscle to represent 5.8 and 43% of total animal weight respectively using the formula: [formula] where CF= 0.058 for blood

[2] = Animal biodistribution (in vivo, i.v. injection); settings: rats; for Blood, % injected dose/organ: blood taken as 5.8% of body weight; for Muscle, % injected dose/organ: muscle taken as 43% of body weight
Protocol: as §1, §2, §3, §4

[3] = Electrophoresis (behaviour of complex under electrophoretic conditions); assay type: physicochemical; settings: Tc-99 and Tc-99m
Protocol: A 0.1 g Agarose/10 cm^3 50 mM Phosphate buffer pH 7.4 gel was run at an applied potential of 300 VV for approximately 35 mins, using bromophenol blue indicator (this indicator moves towards the […]). The resulting distribution of activity was determined using suitable equipment.

Which “Blood, % injected dose/organ” value ([1]; 2 min) does the source give for `CCCP(C)CCP(C)CCC.CCCP(C)CC[P](C)(CCC)[99Tc+]([Cl])[N]=O` (stereo not shown) [[^99m Tc(NO) × (PMPE)2]^+] here?
Its value is 3.27 % injected dose/organ.

And the “Heart, % injected dose/organ” value ([1]; 2 min)?
The value was 0.92 % injected dose/organ.

And the “Heart/Blood Counts/Gram ratio” value ([1]; 2 min)?
The value was 4.15.

And the “Heart/Liver Counts/Gram ratio” value ([1]; 2 min)?
Its value is 0.44.

And the “Heart/Muscle Counts/Gram ratio” value ([1]; 2 min)?
Its value is 4.78.

What about the “Kidney + Urine, % injected dose/organ” value ([1]; 2 min) of the same molecule?
Its value is 13.3 % injected dose/organ.

What about the “Liver + GI, % injected dose/organ” value ([1]; 2 min) of the same molecule?
The value was 44.7 % injected dose/organ.

What about the “Liver, % injected dose/organ” value ([1]; 2 min) of the same molecule?
The value was 27.4 % injected dose/organ.

And the “Lung, % injected dose/organ” value ([1]; 2 min)?
The value was 1.40 % injected dose/organ.

What about the “Muscle, % injected dose/organ” value ([1]; 2 min) of the same molecule?
Its value is 21.1 % injected dose/organ.

What about the “Blood, % injected dose/organ” value ([1]; 60 min) of the same molecule?
The value was 0.42 % injected dose/organ.

What about the “Heart, % injected dose/organ” value ([1]; 60 min) of the same molecule?
Its value is 0.77 % injected dose/organ.

What about the “Heart/Blood Counts/Gram ratio” value ([1]; 60 min) of the same molecule?
Its value is 27.8.

And the “Heart/Liver Counts/Gram ratio” value ([1]; 60 min)?
The value was 1.65.

What about the “Heart/Lung Counts/Gram ratio” value ([1]; 60 min) of the same molecule?
Its value is 2.3.

And the “Heart/Muscle Counts/Gram ratio” value ([1]; 60 min)?
Its value is 5.01.

And the “Kidney + Urine, % injected dose/organ” value ([1]; 60 min)?
The value was 15.2 % injected dose/organ.

And the “Liver + GI, % injected dose/organ” value ([1]; 60 min)?
Its value is 53.6 % injected dose/organ.

What about the “Liver, % injected dose/organ” value ([1]; 60 min) of the same molecule?
Its value is 6.23 % injected dose/organ.

And the “Lung, % injected dose/organ” value ([1]; 60 min)?
The value was 0.53 % injected dose/organ.

And the “Muscle, % injected dose/organ” value ([1]; 60 min)?
Its value is 17.5 % injected dose/organ.

And the “Heart/Lung Counts/Gram ratio” value ([2]; 2 min p.i.)?
The value was 1.0.

With `CC(=O)C=C(C)[O][99Tc-]([Cl])([Cl])([Cl])[N]=O` [[^99 Tc(NO)Cl3 (acac)]^-, trichloro(pentan-2,4-dionato) nitrosyltechnetium(II) anion] as the molecule, how does the “Stability under electrophoretic conditions” value [3] read?
Its value is “decomposed under electrophoretic conditions”.

What about the “Brain, % injected dose/organ” value ([2]; 2 min p.i.) of the same molecule?
Its value is 0.10 % injected dose/organ.

What about the “Heart, % injected dose/organ” value ([2]; 2 min p.i.) of the same molecule?
Its value is 0.56 % injected dose/organ.

What about the “Heart/Blood Counts/Gram ratio” value ([2]; 2 min p.i.) of the same molecule?
The value was 2.2.

What about the “Heart/Liver Counts/Gram ratio” value ([2]; 2 min p.i.) of the same molecule?
Its value is 2.30.

What about the “Heart/Lung Counts/Gram ratio” value ([2]; 2 min p.i.) of the same molecule?
The value was 1.12.

What about the “Heart/Muscle Counts/Gram ratio” value ([2]; 2 min p.i.) of the same molecule?
Its value is 2.19.

What about the “Kidney + Urine, % injected dose/organ” value ([2]; 2 min p.i.) of the same molecule?
The value was 1.61 % injected dose/organ.

What about the “Liver + GI, % injected dose/organ” value ([2]; 2 min p.i.) of the same molecule?
Its value is 0.00 % injected dose/organ.

What about the “Liver, % injected dose/organ” value ([2]; 2 min p.i.) of the same molecule?
The value was 3.12 % injected dose/organ.

And the “Lung, % injected dose/organ” value ([2]; 2 min p.i.)?
The value was 0.73 % injected dose/organ.

What about the “Blood, % injected dose/organ” value ([2]; 2 min p.i.) of the same molecule?
The value was 3.56 % injected dose/organ.

What about the “Muscle, % injected dose/organ” value ([2]; 2 min p.i.) of the same molecule?
The value was 27.9 % injected dose/organ.

And the “Brain, % injected dose/organ” value ([2]; 60 min p.i.)?
The value was 0.05 % injected dose/organ.

And the “Heart, % injected dose/organ” value ([2]; 60 min p.i.)?
The value was 0.23 % injected dose/organ.

And the “Heart/Blood Counts/Gram ratio” value ([2]; 60 min p.i.)?
Its value is 1.76.

And the “Heart/Liver Counts/Gram ratio” value ([2]; 60 min p.i.)?
Its value is 0.39.

And the “Heart/Lung Counts/Gram ratio” value ([2]; 60 min p.i.)?
Its value is 0.74.

What about the “Heart/Muscle Counts/Gram ratio” value ([2]; 60 min p.i.) of the same molecule?
Its value is 1.84.

And the “Kidney + Urine, % injected dose/organ” value ([2]; 60 min p.i.)?
Its value is 13.55 % injected dose/organ.

What about the “Liver + GI, % injected dose/organ” value ([2]; 60 min p.i.) of the same molecule?
Its value is 0.00 % injected dose/organ.

And the “Liver, % injected dose/organ” value ([2]; 60 min p.i.)?
Its value is 8.27 % injected dose/organ.

What about the “Lung, % injected dose/organ” value ([2]; 60 min p.i.) of the same molecule?
The value was 0.53 % injected dose/organ.

What about the “Blood, % injected dose/organ” value ([2]; 60 min p.i.) of the same molecule?
The value was 2.00 % injected dose/organ.

And the “Muscle, % injected dose/organ” value ([2]; 60 min p.i.)?
Its value is 14.37 % injected dose/organ.

With `O=[N][99Tc-]([Cl])([Cl])([Cl])[Cl]` [[^99m TcNOCl4]^-] as the molecule, how does the “Brain, % injected dose/organ” value ([2]; 2 min p.i.) read?
Its value is 0.09 % injected dose/organ.

And the “Heart, % injected dose/organ” value ([2]; 2 min p.i.)?
Its value is 0.55 % injected dose/organ.

And the “Heart/Blood Counts/Gram ratio” value ([2]; 2 min p.i.)?
The value was 0.41.

What about the “Heart/Liver Counts/Gram ratio” value ([2]; 2 min p.i.) of the same molecule?
Its value is 1.37.

And the “Heart/Muscle Counts/Gram ratio” value ([2]; 2 min p.i.)?
The value was 2.14.

And the “Kidney + Urine, % injected dose/organ” value ([2]; 2 min p.i.)?
Its value is 6.26 % injected dose/organ.

And the “Liver + GI, % injected dose/organ” value ([2]; 2 min p.i.)?
The value was 13.49 % injected dose/organ.

What about the “Liver, % injected dose/organ” value ([2]; 2 min p.i.) of the same molecule?
Its value is 5.31 % injected dose/organ.

And the “Lung, % injected dose/organ” value ([2]; 2 min p.i.)?
The value was 2.09 % injected dose/organ.

What about the “Blood, % injected dose/organ” value ([2]; 2 min p.i.) of the same molecule?
Its value is 20.32 % injected dose/organ.

And the “Muscle, % injected dose/organ” value ([2]; 2 min p.i.)?
The value was 30.35 % injected dose/organ.

And the “Brain, % injected dose/organ” value ([2]; 60 min p.i.)?
Its value is 0.05 % injected dose/organ.

And the “Heart, % injected dose/organ” value ([2]; 60 min p.i.)?
The value was 0.42 % injected dose/organ.

What about the “Heart/Blood Counts/Gram ratio” value ([2]; 60 min p.i.) of the same molecule?
Its value is 0.43.

What about the “Heart/Liver Counts/Gram ratio” value ([2]; 60 min p.i.) of the same molecule?
Its value is 0.98.

What about the “Heart/Muscle Counts/Gram ratio” value ([2]; 60 min p.i.) of the same molecule?
Its value is 1.66.

What about the “Kidney + Urine, % injected dose/organ” value ([2]; 60 min p.i.) of the same molecule?
Its value is 14.61 % injected dose/organ.

What about the “Liver + GI, % injected dose/organ” value ([2]; 60 min p.i.) of the same molecule?
The value was 11.89 % injected dose/organ.

And the “Liver, % injected dose/organ” value ([2]; 60 min p.i.)?
The value was 4.59 % injected dose/organ.

And the “Lung, % injected dose/organ” value ([2]; 60 min p.i.)?
Its value is 1.71 % injected dose/organ.

And the “Blood, % injected dose/organ” value ([2]; 60 min p.i.)?
The value was 14.94 % injected dose/organ.

And the “Muscle, % injected dose/organ” value ([2]; 60 min p.i.)?
The value was 30.41 % injected dose/organ.

With `CCP(CC)CCP(CC)CC.CCP(CC)CCP(CC)CC.O=[N][99Tc+][Cl].[Cl-]` [[^99m Tc(NO(DEPE)2 Cl]^+] as the molecule, how does the “Blood, % injected dose/organ” value ([1]; 2 min) read?
The value was 6.00 % injected dose/organ.

What about the “Heart, % injected dose/organ” value ([1]; 2 min) of the same molecule?
Its value is 1.06 % injected dose/organ.

And the “Heart/Blood Counts/Gram ratio” value ([1]; 2 min)?
Its value is 3.03.

What about the “Heart/Liver Counts/Gram ratio” value ([1]; 2 min) of the same molecule?
The value was 0.73.

And the “Heart/Lung Counts/Gram ratio” value ([1]; 2 min)?
The value was 0.4.

And the “Heart/Muscle Counts/Gram ratio” value ([1]; 2 min)?
The value was 5.94.

What about the “Kidney + Urine, % injected dose/organ” value ([1]; 2 min) of the same molecule?
The value was 13.8 % injected dose/organ.

And the “Liver + GI, % injected dose/organ” value ([1]; 2 min)?
Its value is 37.3 % injected dose/organ.

What about the “Liver, % injected dose/organ” value ([1]; 2 min) of the same molecule?
The value was 23.63 % injected dose/organ.

What about the “Lung, % injected dose/organ” value ([1]; 2 min) of the same molecule?
The value was 2.98 % injected dose/organ.

What about the “Muscle, % injected dose/organ” value ([1]; 2 min) of the same molecule?
Its value is 22.9 % injected dose/organ.

What about the “Blood, % injected dose/organ” value ([1]; 60 min) of the same molecule?
Its value is 0.41 % injected dose/organ.

What about the “Heart, % injected dose/organ” value ([1]; 60 min) of the same molecule?
Its value is 0.92 % injected dose/organ.

And the “Heart/Blood Counts/Gram ratio” value ([1]; 60 min)?
Its value is 38.1.

And the “Heart/Liver Counts/Gram ratio” value ([1]; 60 min)?
The value was 1.75.

What about the “Heart/Lung Counts/Gram ratio” value ([1]; 60 min) of the same molecule?
The value was 0.6.

And the “Heart/Muscle Counts/Gram ratio” value ([1]; 60 min)?
The value was 6.18.

What about the “Kidney + Urine, % injected dose/organ” value ([1]; 60 min) of the same molecule?
The value was 19.3 % injected dose/organ.

What about the “Liver + GI, % injected dose/organ” value ([1]; 60 min) of the same molecule?
The value was 47.0 % injected dose/organ.

What about the “Liver, % injected dose/organ” value ([1]; 60 min) of the same molecule?
The value was 7.54 % injected dose/organ.

What about the “Lung, % injected dose/organ” value ([1]; 60 min) of the same molecule?
Its value is 1.57 % injected dose/organ.

What about the “Muscle, % injected dose/organ” value ([1]; 60 min) of the same molecule?
Its value is 19.1 % injected dose/organ.
